Laboratory results reported in paper PMC6815936, “A Pan-Cyclophilin Inhibitor, CRV431, Decreases Fibrosis and Tumor Development in Chronic Liver Disease Models” (The Journal of Pharmacology and Experimental Therapeutics, 2019).
Where two headings read alike, the source gives them in different places. Square brackets hold non-standard residues; d marks the D form. Peptide text beside a SMILES is read from it. NMeThr(4R-Me,4-(CH2)6NHAc) = CN[C@H](C(=O)O)[C@H](O)[C@H](C)CCCCCCNC(C)=O; NMeL = CN[C@@H](CC(C)C)C(=O)O; NMeV = CN[C@H](C(=O)O)C(C)C; dNMeA = CN[C@H](C)C(=O)O; Abu = CC[C@H](N)C(=O)O

Assays:
[1] = tested on: IL-2 promoter luciferase reporter, Jurkat cells; experiment: IL-2 luciferase reporter assay in Jurkat cells; type: cell-based, human; settings: for IC50: 18 hours, read-out: IL-2–Luc IC50; for IL-2–Luc IC50 Fold Difference: CRV431 vs CsA
Experimental: The luciferase reporter assays employed Jurkat cells stably transfected with gene constructs consisting of a luciferase gene plus human nuclear factor of activated T cells (NFAT) or interleukin-2 (IL-2) promoter elements (J1621 and J1651; Promega). The NFAT construct contained a DNA binding site only for NFAT, whereas the IL-2 construct contained binding sites for NFAT, nuclear factor κ-light-chain-enhancer of activated B cells, and activating protein-1 transcription factors. Cells were cultured in 96-well plates at 100,000 cells/well in RPMI 1640 medium (11875-093; Thermo Fisher) supplemented with 5% FBS (12483020; Thermo Fisher). Cells were activated either by precoating high protein-binding plates with 3 µg/ml anti-CD3 (UCHT clone) and anti-CD28 (CD28.2 clone) (BioLegend LEAF antibodies) or by adding phorbol myristate acetate (PMA; P8139; Sigma-Aldrich) to 15 ng/ml and A23187 ionophore (C7522; Sigma-Aldrich) to 0.75 µM. […] Cells were harvested after 18 hours of incubation, and luciferase was quantified with Promega Bio-Glo reagent (G7940; Promega) and measurement with a luminescence plate reader. Data were normalized to DMSO controls (100% stimulation) and to wells without antibody or PMA plus A23187 stimulation.

recombinant Cyp A (PPIA) = molecular target: T1, recombinant Cyp A (PPIA) (Homo sapiens, UniProt P62937); experiment: Cyclophilin isomerase assay, Cyp A; type: biochemical
T1 construct: purchased R&D Systems 3589-CAB
T1 sequence (P62937 whole entry): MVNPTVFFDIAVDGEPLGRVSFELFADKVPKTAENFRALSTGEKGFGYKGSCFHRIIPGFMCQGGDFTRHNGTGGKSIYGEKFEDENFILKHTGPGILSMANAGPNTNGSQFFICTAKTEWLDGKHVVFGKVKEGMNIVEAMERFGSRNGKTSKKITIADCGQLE
Experimental: (§1) Cyclophilin isomerase activity was measured with an assay described by [Kofron et al. (1991)] with adaptations to 96-well plates. In this assay cyclophilins catalyze cis-to-trans isomerization of a proline peptide bond in a nitroanalide-coupled peptide substrate followed by cleavage of the trans-conformer peptide by α-chymotrypsin, release of the p-nitroaniline chromogen, and quantitation of p-nitroaniline by absorbance at 410 nm. All solutions were pre-equilibrated, and all assays were conducted at 4°C. Plates were preloaded with 5 µl peptide solution consisting of N-succinyl-alanine-alanine-proline-phenylalanine-p-nitroanilide (S7388; Sigma-Aldrich) and 400 mM lithium chloride (310468; Sigma-Aldrich) in anhydrous trifluoroethanol (T63002; Sigma-Aldrich). […] Absorbance measurements with a BMG Polarstar Galaxy plate reader were begun immediately and made at 6-second intervals for 6 minutes. Reaction curves were represented by increases in optical density 410 nm as a function of reaction time. For Ki determinations, initial reaction velocities were obtained from the reaction curves and plotted relative to substrate concentration, and the curves were fitted to the enzyme competitive inhibition model (GraphPad Prism) to derive Ki, maximum velocity (Vmax), and Michaelis constant values. For IC50 determinations, the reaction curves were fitted to one-phase exponential association regressions to obtain first-order rate constants.

[2] = molecular target: T2, recombinant cyclophilin G (PPIG) (Homo sapiens, UniProt Q13427); experiment: Cyclophilin isomerase assay, cyclophilin G; type: biochemical
T2 construct: purchased Cedarlane Laboratories CLENZ463
T2 sequence (Q13427 whole entry): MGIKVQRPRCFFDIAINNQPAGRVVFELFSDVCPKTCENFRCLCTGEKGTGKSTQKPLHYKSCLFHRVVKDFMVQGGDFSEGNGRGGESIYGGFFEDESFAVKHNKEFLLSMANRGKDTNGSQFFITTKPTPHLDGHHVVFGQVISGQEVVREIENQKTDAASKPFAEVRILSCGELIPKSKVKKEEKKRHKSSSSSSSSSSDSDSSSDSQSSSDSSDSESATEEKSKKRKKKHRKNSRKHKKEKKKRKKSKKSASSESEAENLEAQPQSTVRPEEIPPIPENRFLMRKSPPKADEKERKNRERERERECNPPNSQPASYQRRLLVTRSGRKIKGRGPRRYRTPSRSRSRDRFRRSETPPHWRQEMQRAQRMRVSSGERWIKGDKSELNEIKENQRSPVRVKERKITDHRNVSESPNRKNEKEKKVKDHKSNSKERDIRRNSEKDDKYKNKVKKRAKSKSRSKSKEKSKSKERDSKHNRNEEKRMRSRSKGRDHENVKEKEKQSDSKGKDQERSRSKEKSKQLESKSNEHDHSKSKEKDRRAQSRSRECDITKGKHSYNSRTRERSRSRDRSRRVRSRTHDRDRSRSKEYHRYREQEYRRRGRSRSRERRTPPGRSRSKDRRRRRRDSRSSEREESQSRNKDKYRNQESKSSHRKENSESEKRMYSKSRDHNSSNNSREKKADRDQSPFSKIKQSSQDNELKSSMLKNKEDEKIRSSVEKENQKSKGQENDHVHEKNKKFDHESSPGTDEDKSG
Experimental: as §1, with “For IC50 determinations, the reaction curves were fitted to one-phase exponential association regressions to obtain first-order rate constants.” left out

six human cell types = experiment: Cytotoxicity analysis, resazurin viability assay
Experimental: CRV431 cytotoxicity was evaluated in cell culture with six human cell types: Jurkat E6.1 lymphocyte cell line (88042803, person; Sigma-Aldrich), HepaRG hepatocyte cell line (HPRGC10, person; Life Technologies), primary renal epithelial cells (CC-2556, unknown gender; Lonza), primary dermal fibroblasts (CC-2511, person; Lonza), primary bronchial smooth muscle cells (CC-2576, person; Lonza), and primary umbilical vein endothelial cells (CC-2519, person; Lonza). Jurkat cells (suspension cell type) were plated at 35,000 cells/well in 96-well plates. All other cell types (adherent cell types) were plated 2500–10,000 cells/well (adherent cell types) in GelCol bovine collagen-coated (5167; Advanced Biomatrix) 96-well Nunc Edge 2.0 evaporation barrier plates (14387223; Thermo Scientific). Cell culture medium and culture conditions followed suppliers’ recommendations. […] Cell viability was assessed at the end of the 3-day culture period using the In Vitro Toxicology Assay (Tox8-1KT; Sigma-Aldrich). In this assay the oxidoreduction indicator dye, resazurin, is colorometrically converted in proportion to the number of viable cells and measured by absorbance or fluorescence. Fluorescence was measured (excitation 540 nm; emission 590 nm) with a BMG Polarstar Galaxy Microplate Reader.

OAT1 = OAT1 (Homo sapiens, UniProt Q4U2R8); experiment: Drug transporter inhibition, OAT1; settings: OAT1, HEK293
OAT1, sequence (Q4U2R8 whole entry): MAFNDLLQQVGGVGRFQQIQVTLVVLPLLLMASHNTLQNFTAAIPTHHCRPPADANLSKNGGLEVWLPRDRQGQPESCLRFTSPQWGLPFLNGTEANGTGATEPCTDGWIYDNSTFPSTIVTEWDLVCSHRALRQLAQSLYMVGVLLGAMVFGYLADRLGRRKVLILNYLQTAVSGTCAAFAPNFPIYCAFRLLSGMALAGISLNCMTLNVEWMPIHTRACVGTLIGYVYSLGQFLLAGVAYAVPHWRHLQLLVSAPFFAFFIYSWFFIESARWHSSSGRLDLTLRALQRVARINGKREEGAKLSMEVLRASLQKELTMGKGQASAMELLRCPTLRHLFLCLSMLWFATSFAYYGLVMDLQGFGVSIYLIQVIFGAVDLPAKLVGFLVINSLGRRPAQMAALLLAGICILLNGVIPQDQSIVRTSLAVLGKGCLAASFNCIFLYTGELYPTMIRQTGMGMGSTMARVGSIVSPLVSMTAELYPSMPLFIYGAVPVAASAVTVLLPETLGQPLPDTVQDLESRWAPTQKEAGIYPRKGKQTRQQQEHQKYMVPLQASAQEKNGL
Experimental: Bile salt export pump (BSEP) and multidrug resistance protein (MRP)1 inhibition was assessed by measuring substrate accumulation in membrane vesicles prepared from insect Sf9 cells and recombinantly expressing BSEP and MRP2 (Genomembrane). Inhibition of all other transporters was assessed by measuring substrate accumulation in cells recombinantly expressing the transporter. Known inhibitors of each transporter were used as positive controls for the assays. […] Specific, ATP-dependent uptake was determined by subtracting uptake in negative control vesicles and cells not expressing the transporters, and secondly by subtracting uptake in the absence of ATP in the assays. Specific, ATP-dependent uptake was plotted as a function of CRV431 concentrations and fitted to nonlinear regressions to obtain IC50 values.

[3] = tested on: CCl4-induced liver fibrosis in C57BL/6 mice; experiment: Carbon tetrachloride mouse model of liver fibrosis; type: in vivo; settings: 50 mg/kg per day oral for 6 weeks, vs vehicle
Experimental: Carbon tetrachloride (CCl4)–induced liver fibrosis was conducted in C57BL/6J male mice starting at 7 weeks of age. Mice were injected intraperitoneally twice per week with 0.5–0.75 ml/kg CCL4 (289116; Sigma-Aldrich) and corn oil (0.05 ml total dose per mouse) for 6 weeks. CRV431, obeticholic acid (OCA, HY-12222; MedChemExpress), and vehicle were administered by daily oral gavage for the entire duration of the study. CRV431 and OCA were dissolved in a self-microemulsifying drug vehicle ([Trepanier et al., 2018]), and then diluted with PBS. CRV431 was administered at 50 mg/kg per day, and OCA was administered at 10 mg/kg per day.
Blood and livers were collected at the end of the NASH and CCl4 studies. In some studies, serum or plasma was isolated from freshly-collected blood, whereas in other studies blood was frozen for later analysis of CRV431 concentration. Livers were immersion-fixed in zinc-formalin and paraffin-embedded for histologic processing. Liver sections were stained with hematoxylin and eosin for assessment of inflammation, ballooning, and steatosis, and with sirius red for assessment of collagen I and III (fibrosis). Sirius red staining was quantified by blinded analysis in one section per liver using ImageJ software. […]

OATP1B3 = OATP1B3 (Homo sapiens, UniProt Q9NPD5)
OATP1B3, sequence (Q9NPD5 whole entry): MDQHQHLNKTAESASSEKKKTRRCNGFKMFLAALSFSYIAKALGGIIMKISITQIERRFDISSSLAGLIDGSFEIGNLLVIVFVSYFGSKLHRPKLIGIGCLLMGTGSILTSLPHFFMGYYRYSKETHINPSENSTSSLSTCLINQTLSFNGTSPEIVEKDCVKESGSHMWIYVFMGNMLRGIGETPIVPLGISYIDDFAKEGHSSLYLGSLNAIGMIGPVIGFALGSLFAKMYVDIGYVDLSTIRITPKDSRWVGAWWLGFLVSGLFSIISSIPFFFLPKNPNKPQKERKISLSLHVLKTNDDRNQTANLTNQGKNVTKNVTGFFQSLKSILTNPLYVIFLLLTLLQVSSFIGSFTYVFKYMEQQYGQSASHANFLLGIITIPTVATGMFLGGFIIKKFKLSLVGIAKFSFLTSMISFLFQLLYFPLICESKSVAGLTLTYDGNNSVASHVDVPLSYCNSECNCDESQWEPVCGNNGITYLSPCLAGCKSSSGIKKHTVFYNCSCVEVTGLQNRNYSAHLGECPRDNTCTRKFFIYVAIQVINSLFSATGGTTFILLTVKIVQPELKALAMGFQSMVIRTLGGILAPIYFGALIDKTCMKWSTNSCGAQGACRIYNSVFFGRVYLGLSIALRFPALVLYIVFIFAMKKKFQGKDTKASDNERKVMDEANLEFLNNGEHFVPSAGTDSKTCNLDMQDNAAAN
Experimental: Briefly, PGP and breast cancer resistance protein inhibition was assessed by measuring the bidirectional transport of substrates across cell monolayers in transwell culture plates. Efflux ratios were represented as (apical-to-basal flux)/(basal-to-apical flux), and efflux ratios were plotted relative to CRV431 concentration to derive IC50 values. Bile salt export pump (BSEP) and multidrug resistance protein (MRP)1 inhibition was assessed by measuring substrate accumulation in membrane vesicles prepared from insect Sf9 cells and recombinantly expressing BSEP and MRP2 (Genomembrane). Inhibition of all other transporters was assessed by measuring substrate accumulation in cells recombinantly expressing the transporter. Known inhibitors of each transporter were used as positive controls for the assays. […] Specific, ATP-dependent uptake was determined by subtracting uptake in negative control vesicles and cells not expressing the transporters, and secondly by subtracting uptake in the absence of ATP in the assays. Specific, ATP-dependent uptake was plotted as a function of CRV431 concentrations and fitted to nonlinear regressions to obtain IC50 values.

[4] = rat, in vivo, po
Excerpt: Male and female Sprague–Dawley rats and male C57BL/6 mice from the carbon tetrachloride and NASH studies were used to evaluate CRV431 pharmacokinetics and distribution. […] Terminal whole blood and livers were collected and frozen until drug extraction. Liver samples were homogenized in PBS or 1% formic acid (0.1 g–0.4 g liver sample per ml solvent) with bead-based homogenizers (TissueLyser or Beadruptor). […] Sample and standard compounds were extracted from blood and liver homogenates using a zinc sulfate/methanol precipitation method and quantified by liquid chromatography–electrospray ionization–mass spectrometry, as previously described ([Trepanier et al., 2018]). Liver CRV431 concentrations were normalized to the masses of the liver samples.
CRV431 pharmacokinetics in rats. […] Whole–blood concentrations of the two compounds were determined at the indicated time points. […] Means and S.D. shown.

MATE-1 = molecular target: T3, MATE-1 (Homo sapiens, UniProt Q96FL8); experiment: Drug transporter inhibition, MATE-1; type: in vitro ADME; settings: MATE-1, HEK293
T3 construct: expressed in transfected cells
T3 sequence (Q96FL8 whole entry): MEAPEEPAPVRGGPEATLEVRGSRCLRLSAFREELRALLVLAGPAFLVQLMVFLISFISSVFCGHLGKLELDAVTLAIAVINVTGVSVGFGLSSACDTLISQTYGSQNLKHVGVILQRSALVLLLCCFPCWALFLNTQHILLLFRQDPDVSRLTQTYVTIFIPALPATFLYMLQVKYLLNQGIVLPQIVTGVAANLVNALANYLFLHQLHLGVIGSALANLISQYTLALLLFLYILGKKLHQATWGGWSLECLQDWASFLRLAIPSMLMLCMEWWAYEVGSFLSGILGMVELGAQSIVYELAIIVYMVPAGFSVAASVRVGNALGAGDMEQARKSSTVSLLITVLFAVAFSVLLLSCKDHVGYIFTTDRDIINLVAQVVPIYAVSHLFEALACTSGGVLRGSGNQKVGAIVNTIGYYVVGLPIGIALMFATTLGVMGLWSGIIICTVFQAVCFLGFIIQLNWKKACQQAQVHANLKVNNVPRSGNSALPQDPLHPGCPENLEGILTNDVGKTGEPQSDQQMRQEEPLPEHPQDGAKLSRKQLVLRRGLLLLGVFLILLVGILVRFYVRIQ
Experimental: Inhibition of all other transporters was assessed by measuring substrate accumulation in cells recombinantly expressing the transporter. Known inhibitors of each transporter were used as positive controls for the assays. […] Specific, ATP-dependent uptake was determined by subtracting uptake in negative control vesicles and cells not expressing the transporters, and secondly by subtracting uptake in the absence of ATP in the assays. Specific, ATP-dependent uptake was plotted as a function of CRV431 concentrations and fitted to nonlinear regressions to obtain IC50 values.

SMILES: CC[C@@H]1NC(=O)[C@H]([C@H](O)[C@H](C)CCCCCCNC(C)=O)N(C)C(=O)[C@H](C(C)C)N(C)C(=O)[C@H](CC(C)C)N(C)C(=O)[C@H](CC(C)C)N(C)C(=O)[C@@H](C)NC(=O)[C@H](C)NC(=O)[C@H](CC(C)C)N(C)C(=O)[C@H](C(C)C)NC(=O)[C@H](CC(C)C)N(C)C(=O)[C@@H](C)N(C)C1=O [CRV431] (cyclo(A[dA][NMeL][NMeL][NMeV][NMeThr(4R-Me,4-(CH2)6NHAc)][Abu][dNMeA][NMeL]V[NMeL]))
- IC50 ([1]; CD3 + CD28 antibodies stimulation): 312 nM
- IL-2–Luc IC50 Fold Difference ([1]; CD3 + CD28 antibodies): 34.6
- IL-2–Luc IC50 Fold Difference ([1]; PMA + A23187): 36.9
- IC50 ([1]; PMA + A23187 stimulation): 300 nM
- times less potent than CsA on Jurkat–IL-2 cells ([1]; ratio of CRV431 and CsA IC50): approximately 35 times
- Maximum enzyme velocity (Vmax) in the presence of compound (recombinant Cyp A (PPIA)): 5.3 µmol/s per nanomole Cyp A
- IC50 Fold Difference (recombinant Cyp A (PPIA); CsA IC50 vs CRV431 IC50, PPIA): 10.2
- IC50 (recombinant Cyp A (PPIA); PPIA (Cyp A), one peptide substrate concentration): 2.5 nM
- Ki (recombinant Cyp A (PPIA); competitive enzyme inhibition model, multiple substrate concentrations, 4°C, read-out: Ki toward cyclophilin A): 1.3 nM
- fold higher potency of CRV431 vs CsA (Ki) (recombinant Cyp A (PPIA); ratio of Ki values): 13 fold
- IC50 Fold Difference ([2]; CsA IC50 vs CRV431 IC50, PPIG): 3.8
- IC50 ([2]; PPIG (Cyp G), one peptide substrate concentration): 7.3 nM
- CC50 (six human cell types): 23600 nM
- lethality (six human cell types; at the highest concentrations tested (up to 80 µM), 3 days): 100%
- CRV431 Inhibitory Potency vs. CsA (OAT1): Same (no inhibition)
- IC50 (OAT1): > 50000 nM
- lowering of the amount of sirius red staining [3]: 43%
- IC50 (OATP1B3): 600 nM
- half-life (in words) [4]: relatively long CRV431 half-life that exceeded that of CsA
- CRV431 Inhibitory Potency vs. CsA (MATE-1): Same (no inhibition)
